Test results taken from patent publication US20240287076A1, “COMPOUNDS FOR TARGETING DEGRADATION OF BRUTON'S TYROSINE KINASE” (BIOGEN MA INC., priority 2021, published 2024).

Biological target: T1, BTK (Homo sapiens, UniProt Q06187)
T1 construct: The GM01501.3 cell line endogenously expresses BTK with a HiBiT fusion tag via CRISPR knock-in at its C-terminal region; endogenous in cells; host or cells: GM01501.3 (GM01501 cells engineered by CRISPR knock-in of HiBiT at the BTK locus)
Assay: BTK degradation assay using the HiBiT Method (Nano-Glo HiBiT Lytic Assay, GM01501.3 cells)
Type: cell-based
Conditions: HiBiT Degradation on GM01501.3 BTK @ 6 hours
Outline: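 CRISPR knock-in GM01501.3 cells expressing endogenous BTK with C-terminal HiBiT tag, treated 6 h at 37 °C with compounds, 11-point half-log titration from 10 μM top, duplicates. Remaining BTK quantified by Nano-Glo HiBiT lytic luminescence versus DMSO controls; DC50 reported.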

T1 sequence (Q06187 whole entry, the tested form may be a part): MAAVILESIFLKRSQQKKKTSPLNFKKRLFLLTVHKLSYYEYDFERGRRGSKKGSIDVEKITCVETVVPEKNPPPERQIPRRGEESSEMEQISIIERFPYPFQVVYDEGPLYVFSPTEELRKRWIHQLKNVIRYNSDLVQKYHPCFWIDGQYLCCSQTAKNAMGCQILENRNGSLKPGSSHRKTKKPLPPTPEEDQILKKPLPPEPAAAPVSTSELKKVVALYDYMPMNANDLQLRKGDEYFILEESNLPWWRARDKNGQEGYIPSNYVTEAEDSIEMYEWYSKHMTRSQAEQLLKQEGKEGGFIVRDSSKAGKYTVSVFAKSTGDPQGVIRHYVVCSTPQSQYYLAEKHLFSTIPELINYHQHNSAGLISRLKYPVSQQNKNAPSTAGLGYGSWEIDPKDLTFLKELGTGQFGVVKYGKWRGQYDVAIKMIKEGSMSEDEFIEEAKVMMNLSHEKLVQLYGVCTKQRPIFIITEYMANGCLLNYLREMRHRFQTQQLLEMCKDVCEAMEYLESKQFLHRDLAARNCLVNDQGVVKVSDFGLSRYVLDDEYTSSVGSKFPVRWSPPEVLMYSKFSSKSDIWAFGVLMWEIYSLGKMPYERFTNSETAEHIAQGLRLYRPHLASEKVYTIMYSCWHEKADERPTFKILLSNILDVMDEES

DC50, < 100 nM:
Cc1cc(-c2ncnn3cc(N4CCN(C(=O)C5CC6(CCCN6C(=O)c6ccc(OC7CCC(=O)NC7=O)cc6)C5)CC4)cc23)ccc1CNC(=O)c1noc(C(C)(C)C)n1 (stereo not drawn) [Example 186, 5-(tert-butyl)-N-(4-(6-(4-(5-(4-((2,6-dioxopiperidin-3-yl)oxy)benzoyl)-5-azaspiro[3.4]octane-2-carbonyl)piperazin-1-yl)pyrrolo[2,1-f][1,2,4]triazin-4-yl)-2-methylbenzyl)-1,2,4-oxadiazole-3-carboxamide]
Cc1cc(-c2ncnn3cc(N4CCN(C(=O)C5CCOC5CNC(=O)c5ccc(OC6CCC(=O)NC6=O)cc5)CC4)cc23)ccc1CNC(=O)c1noc(C(C)(C)C)n1 (stereo not drawn) [Example 187, 5-(tert-butyl)-N-(4-(6-(4-(2-((4-((2,6-dioxopiperidin-3-yl)oxy)benzamido)methyl)tetrahydrofuran-3-carbonyl)piperazin-1-yl)pyrrolo[2,1-f][1,2,4]triazin-4-yl)-2-methylbenzyl)-1,2,4-oxadiazole-3-carboxamide]
Cc1cc(-c2ncnn3cc(N4CCN(C(=O)[C@@H]5CCC[C@H](NC(=O)c6ccc(OC7CCC(=O)NC7=O)cc6)C5)CC4)cc23)ccc1CNC(=O)c1noc(C(C)(C)C)n1 (stereo partly drawn) [Example 188, 5-(tert-butyl)-N-(4-(6-(4-((1R,3S)-3-(4-((2,6-dioxopiperidin-3-yl)oxy)benzamido)cyclohexane-1-carbonyl)piperazin-1-yl)pyrrolo[2,1-f][1,2,4]triazin-4-yl)-2-methylbenzyl)-1,2,4-oxadiazole-3-carboxamide]
Cc1cc(-c2ncnn3cc(N4CCN(C(=O)c5ncoc5CNC(=O)c5ccc(OC6CCC(=O)NC6=O)cc5)CC4)cc23)ccc1CNC(=O)c1noc(C(C)(C)C)n1 (stereo not drawn) [Example 189, 5-(tert-butyl)-N-(4-(6-(4-(5-((4-((2,6-dioxopiperidin-3-yl)oxy)benzamido)methyl)oxazole-4-carbonyl)piperazin-1-yl)pyrrolo[2,1-f][1,2,4]triazin-4-yl)-2-methylbenzyl)-1,2,4-oxadiazole-3-carboxamide]
Cc1cc(-c2ncnn3cc(N4CCN(C(=O)CC5CC6(CO5)CN(C(=O)c5ccc(OC7CCC(=O)NC7=O)cc5)C6)CC4)cc23)ccc1CNC(=O)c1noc(C(C)(C)C)n1 (stereo not drawn) [Example 190, 5-(tert-butyl)-N-(4-(6-(4-(2-(2-(4-((2,6-dioxopiperidin-3-yl)oxy)benzoyl)-6-oxa-2-azaspiro[3.4]octan-7-yl)acetyl)piperazin-1-yl)pyrrolo[2,1-f][1,2,4]triazin-4-yl)-2-methylbenzyl)-1,2,4-oxadiazole-3-carboxamide]
Cc1cc(-c2ncnn3cc(N4CCN(C(=O)C5CCN(C(=O)c6ccc(OC7CCC(=O)NC7=O)cc6)C56CCC6)CC4)cc23)ccc1CNC(=O)c1noc(C(C)(C)C)n1 (stereo not drawn) [Example 191, 5-(tert-butyl)-N-(4-(6-(4-(5-(4-((2,6-dioxopiperidin-3-yl)oxy)benzoyl)-5-azaspiro[3.4]octane-8-carbonyl)piperazin-1-yl)pyrrolo[2,1-f][1,2,4]triazin-4-yl)-2-methylbenzyl)-1,2,4-oxadiazole-3-carboxamide]
Cc1cc(-c2ncnn3cc(N4CCN(C(=O)CC(C)(C)CNC(=O)c5ccc(OC6CCC(=O)NC6=O)cc5)CC4)cc23)ccc1CNC(=O)c1noc(C(C)(C)C)n1 (stereo not drawn) [Example 192, 5-(tert-butyl)-N-(4-(6-(4-(4-(4-((2,6-dioxopiperidin-3-yl)oxy)benzamido)-3,3-dimethylbutanoyl)piperazin-1-yl)pyrrolo[2,1-f][1,2,4]triazin-4-yl)-2-methylbenzyl)-1,2,4-oxadiazole-3-carboxamide]
Cc1cc(-c2ncnn3cc(N4CCN(C(=O)c5ccccc5CNC(=O)c5ccc(OC6CCC(=O)NC6=O)cc5)CC4)cc23)ccc1CNC(=O)c1noc(C(C)(C)C)n1 (stereo not drawn) [Example 193, 5-(tert-butyl)-N-(4-(6-(4-(2-((4-((2,6-dioxopiperidin-3-yl)oxy)benzamido)methyl)benzoyl)piperazin-1-yl)pyrrolo[2,1-f][1,2,4]triazin-4-yl)-2-methylbenzyl)-1,2,4-oxadiazole-3-carboxamide]
Cc1cc(-c2ncnn3cc(-c4ccc(C(=O)Nc5cccc6c5CCN(C5CCC(=O)NC5=O)C6)cc4)cc23)ccc1CNC(=O)c1noc(C(C)(C)C)n1 (stereo not drawn) [Example 194, 5-(tert-butyl)-N-(4-(6-(4-((2-(2,6-dioxopiperidin-3-yl)-1,2,3,4-tetrahydroisoquinolin-5-yl)carbamoyl)phenyl)pyrrolo[2,1-f][1,2,4]triazin-4-yl)-2-methylbenzyl)-1,2,4-oxadiazole-3-carboxamide]
Cc1cc(-c2ncnn3cc(-c4ccc(C(=O)NCCc5cccc(NC6CCC(=O)NC6=O)c5)cc4)cc23)ccc1CNC(=O)c1noc(C(C)(C)C)n1 (stereo not drawn) [Example 196]
Cc1cc(-c2ncnn3cc(-c4ccc(C(=O)NC5CCc6cc(NC7CCC(=O)NC7=O)ccc6C5)cc4)cc23)ccc1CNC(=O)c1noc(C(C)(C)C)n1 (stereo not drawn) [Example 197, 5-(tert-butyl)-N-(4-(6-(4-((6-((2,6-dioxopiperidin-3-yl)amino)-1,2,3,4-tetrahydronaphthalen-2-yl)carbamoyl)phenyl)pyrrolo[2,1-f][1,2,4]triazin-4-yl)-2-methylbenzyl)-1,2,4-oxadiazole-3-carboxamide]
Cc1cc(-c2ncnn3cc(-c4ccc(C(=O)NCCc5ccc(NC6CCC(=O)NC6=O)cc5)cc4)cc23)ccc1CNC(=O)c1noc(C(C)(C)C)n1 (stereo not drawn) [Example 198, 5-(tert-butyl)-N-(4-(6-(4-((4-((2,6-dioxopiperidin-3-yl)amino)phenethyl)carbamoyl)phenyl)pyrrolo[2,1-f] [1,2,4]triazin-4-yl)-2-methylbenzyl)-1,2,4-oxadiazole-3-carboxamide]
Cc1cc(-c2ncnn3cc(-c4ccc(C(=O)N[C@H](C)c5cccc(NC6CCC(=O)NC6=O)c5)cc4)cc23)ccc1CNC(=O)c1noc(C(C)(C)C)n1 (stereo partly drawn) [Example 199, 5-(tert-butyl)-N-(4-(6-(4-(((1R)-1-(3-((2,6-dioxopiperidin-3-yl)amino)phenyl)ethyl)carbamoyl)phenyl)pyrrolo[2,1-f] [1,2,4]triazin-4-yl)-2-methylbenzyl)-1,2,4-oxadiazole-3-carboxamide]
Cc1cc(-c2ncnn3cc(-c4ccc(CN5CCOC(c6ccc(NC7CCC(=O)NC7=O)cc6)C5)cc4)cc23)ccc1CNC(=O)c1noc(C(C)(C)C)n1 (stereo not drawn) [Example 200, 5-(tert-butyl)-N-(4-(6-(4-((2-(4-((2,6-dioxopiperidin-3-yl)amino)phenyl)morpholino)methyl)phenyl)pyrrolo[2,1-f][1,2,4]triazin-4-yl)-2-methylbenzyl)-1,2,4-oxadiazole-3-carboxamide]
Cc1cc(-c2ncnn3cc(-c4ccc(CN5CCC(Oc6ccc(NC7CCC(=O)NC7=O)cc6)CC5)cc4)cc23)ccc1CNC(=O)c1noc(C(C)(C)C)n1 (stereo not drawn) [Example 201, 5-(tert-butyl)-N-(4-(6-(4-((4-(4-((2,6-dioxopiperidin-3-yl)amino)phenoxy)piperidin-1-yl)methyl)phenyl)pyrrolo[2,1-f][1,2,4]triazin-4-yl)-2-methylbenzyl)-1,2,4-oxadiazole-3-carboxamide]
